Patent US20250090524A1, “BTK INHIBITORS” (BIOGEN MA INC., priority 2021, published 2025)

Tests used:
BTK = biological target: T1, BTK (Homo sapiens, UniProt Q06187); assay: In Vitro BTK Kinase Assay: Btk-PolyGAT-LS Assay; format: biochemical; details: active BTK enzyme 0.25 nM, fluorescein-labeled polyGAT peptide 100 nM, 30 minutes incubation, TRF readout; read-out: In Vitro BTK Kinase Assay IC50 Score
T1 construct: purchased Upstate 14-552
Procedure: The purpose of the BTK in vitro assay is to determine compound potency against BTK through the measurement of IC50. Compound inhibition is measured after monitoring the amount of phosphorylation of a fluorescein-labeled polyGAT peptide (Invitrogen PV3611) in the presence of active BTK enzyme (Upstate 14-552), ATP, and inhibitor. The BTK kinase reaction was done in a black 96 well plate (costar 3694). For a typical assay, a 24 μL aliquot of a ATP/peptide master mix (final concentration; ATP […], polyGAT 100 nM) in kinase buffer (10 mM Tris-HCl pH 7.5, 10 mM MgCl2, 200 μM […], 5 mM DTT, 0.01% Triton X-100, and 0.2 mg/ml casein) is added to each well. Next, I uL of a 4-fold, 40× compound titration in 100% DMSO solvent is added, followed by adding […] of BTK enzyme mix in 1× kinase buffer (with a final concentration of 0.25 nM). The assay is incubated for 30 minutes before being stopped with […] of a 50 mM EDTA solution. Aliquots (5 uL) of the kinase reaction are transferred to a low volume white 384 well plate (Corning 3674), and […] of a 2× detection buffer (Invitrogen PV3574, with 4 nM Tb-PY20 antibody, Invitrogen PV3552) is added. The plate is covered and incubated for 45 minutes at room temperature. Time resolved fluorescence (TRF) on Molecular Devices M5 (332 nm excitation; 488 nm emission; 518 nm fluorescein emission) is measured. IC50 values are calculated using a four parameter fit with 100% enzyme activity determined from the DMSO control and 0% activity from the EDTA control.
“†” represents an IC50 of greater than 1 μM and equal to or less than 10 μM. “††” represents an IC50 of greater than 10 nM and equal to or less than 1 μM (10 nM<IC50≤1 μM). “†††” represents an IC50 of greater than 1 nM and equal to or less than 10 nM (1 nM<IC50≤10 nM). “††††” represents an IC50 of less than 1 nM.

[1] = system: CD69 expression on CD19+ B cells in human whole blood; assay: In Vitro Whole Blood CD69 Assay; format: cell-based; details: B-cell; human heparinized whole blood, anti-human IgD stimulation, overnight (18 to 22 hours), percentage of CD19+ B cells expressing CD69, flow cytometry; read-out: In Vitro HWB CD69 Assay IC50 Score
Procedure: Human heparinized venous blood from health donors was aliquoted into 96-well plate and “spiked” with serial dilutions of formula I compounds in DMSO or with DMSO without drug. The final concentration of DMSO in all wells was 0.1%. The plate was incubated at 37° C. for 30 min. Drug-containing samples were stimulated with […] mouse anti-human IgD-dextran (1A62) or 20 μg/mL polyclonal rabbit F(ab′)2 anti-human IgD.
Phosphate-buffered saline (PBS) was added to the negative control unstimulated sample and the plates were incubated overnight (18 to 22 hours) at 37° C. Cells were stained with fluorochrome-conjugated anti-CD19 and anti-CD69 antibodies. Lyse/fix solution was used to remove red blood cells by hypotonic lysis and to fix the remaining cells, which were then analyzed by flow cytometry. CD19+B cells were gated and analyzed for CD69 expression.
The percentage of B cells expressing CD69 was plotted versus the log 10 of the concentration of the drug and the best-fit curves (variable Hill slope) were generated to obtain the IC50 value.
“†” represents an IC50 of greater than 10 μM. “††” represents an IC50 of greater than 1 μM and equal to or less than 10 μM (1 μM<IC50≤10 μM). “†††” represents an IC50 of less than 1 μM.

T1 sequence (Q06187 whole entry): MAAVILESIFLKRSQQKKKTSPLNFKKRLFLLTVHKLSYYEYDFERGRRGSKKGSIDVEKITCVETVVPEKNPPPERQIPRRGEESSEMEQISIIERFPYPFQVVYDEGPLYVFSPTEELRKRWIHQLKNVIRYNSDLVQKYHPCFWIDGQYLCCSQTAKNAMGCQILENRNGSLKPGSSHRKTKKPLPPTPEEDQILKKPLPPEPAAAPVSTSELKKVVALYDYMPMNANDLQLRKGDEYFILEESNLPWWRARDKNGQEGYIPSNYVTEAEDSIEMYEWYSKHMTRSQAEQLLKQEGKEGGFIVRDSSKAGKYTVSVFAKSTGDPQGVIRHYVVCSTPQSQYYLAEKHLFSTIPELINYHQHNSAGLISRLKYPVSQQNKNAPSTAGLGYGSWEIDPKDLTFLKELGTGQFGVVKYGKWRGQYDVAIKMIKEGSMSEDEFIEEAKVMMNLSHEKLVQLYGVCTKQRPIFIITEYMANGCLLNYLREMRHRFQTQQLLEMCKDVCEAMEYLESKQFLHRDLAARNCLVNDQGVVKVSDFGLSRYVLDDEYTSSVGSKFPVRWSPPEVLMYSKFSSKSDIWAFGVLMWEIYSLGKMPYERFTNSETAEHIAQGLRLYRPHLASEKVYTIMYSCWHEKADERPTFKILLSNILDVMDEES

| IC50 (BTK) | IC50 [1] | Structure (SMILES) |
| --- | --- | --- |
| 1 to 10 nM | < 1000 nM | C=CC(=O)N1CCC(c2nc(-c3cnn(C)c3)cn3ncc(F)c23)CC1 [Example 7, 1-[4-[3-fluoro-6-(1-methylpyrazol-4-yl)pyrazolo[1,5-a]pyrazin-4-yl]-1-piperidyl]prop-2-en-1-one] |
| < 1 nM | < 1000 nM | C=CC(=O)N1C[C@H]2C[C@@H](c3nc(-c4cnn(C)c4)cn4nccc34)C[C@H]2C1 (single isomer, unassigned) [Example 1] |
| 1 to 10 nM | 1000 to 10000 nM | C=CC(=O)N1CCC(c2cc(-c3cnn(C)c3)cn3nccc23)CC1 [Example 8, 1-[4-[6-(1-methylpyrazol-4-yl)pyrazolo[1,5-a]pyridin-4-yl]-1-piperidyl]prop-2-en-1-one] |

The remaining lines, values behind:

| Structure (SMILES) | IC50 (BTK) | IC50 [1] |
| --- | --- | --- |
| C=CC(=O)N(C)c1cccc(-c2nc(-c3cnn(C)c3)cn3nccc23)c1 [Example 29, N-methyl-N-(3-(6-(1-methyl-1H-pyrazol-4-yl)pyrazolo[1,5-a]pyrazin-4-yl)phenyl)acrylamide] | 1 to 10 nM | 1000 to 10000 nM |
| C=CC(=O)N(C)C1CCC(C(=O)c2nc(-c3cnn(C)c3)cn3nccc23)C1 (single isomer, unassigned) [Example 16, N-methyl-N-(3-(6-(1-methyl-1H-pyrazol-4-yl)pyrazolo[1,5-a]pyrazine-4-carbonyl)cyclopentyl)acrylamide] | 1 to 10 nM | 1000 to 10000 nM |
| C=CC(=O)N1C2CCCC1CC(c1nc(-c3cnn(C)c3)cn3nccc13)C2 (stereo not drawn) [Example 13, 1-[3-[6-(1-methylpyrazol-4-yl)pyrazolo[1,5-a]pyrazin-4-yl]-9-azabicyclo[3.3.1]nonan-9-yl]prop-2-en-1-one] | 1 to 10 nM | 1000 to 10000 nM |
